GI50 and TGI data for 13 compounds are collected here from PubChem BioAssay (NCI).

What all share (experiment): growth of human tumour cells (NCI), 48 h
The subject of test [1] is HT29 colon.
Test [2] deals with OVCAR-4 ovarian.
Test [3] deals with NCI-H226 lung.
Test [4] relates to M14 melanoma.
For test [5], the system named is SNB-75 CNS.
In test [6] the test system is SNB-19 CNS.
For test [7], the system named is UO-31 renal.
The subject of test [8] is A549 NSCLC.
Test [9] relates to UACC-257 melanoma.

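1) Cells in 96-well plates. 2) Compound, 48 h, 5 concentrations. 3) Linear interpolation between surrounding doses. 4) Unreached endpoint = highest concentration. Abbreviation: GI50, concentration required for 50% inhibition of growth. TGI is the concentration that stops growth completely.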 Some results are limits rather than exact numbers.

As for `O=C(CCCCC(=O)N/N=C\c1ccccc1O)N/N=C\c1ccccc1O`, the GI50 was over 100 µM in test [1]; 1.73 µM in test [2]; 3.12 µM in test [3]; 3.39 µM in test [4]; 3.39 µM in test [5]; 5.88 µM in [6]. In addition, the TGI in test [1] was over 100 µM; in [2] it was over 100 µM; in test [3], over 100 µM; in test [4], over 100 µM; in test [5], 20.5 µM; in test [6], over 100 µM.
Take `O=C(CC/C(CC(=O)c1ccc(Br)cc1)=N\O)Nc1ccc(Cl)c(Cl)c1`: the TGI in [7], in test [1], in test [2], in test [8], in test [3] and in [4] was over 100 µM throughout. Further, the TGI in test [9] and in test [5] was over 100 µM each time.
`CC(=O)[O-].O=C([CH-]C(=O)c1ccccc1)c1ccccc1.O=C([CH-]C(=O)c1ccccc1)c1ccccc1.[Sm+3]`: the GI50 is 3.79 µM in test [7]; 6.59 µM in [1]; 4.81 µM in [2]; 6.11 µM in test [8]; 1.52 µM in test [3]; 4.55 µM in [4]. The results for the GI50 in [9], in [5] and in test [6] were 5.66 µM, 2.12 µM and 6.44 µM, respectively. Also, the TGI is 12.5 µM in [7]; 19 µM in [1]; 62.6 µM in test [2]; 29.5 µM in test [8]; 9.69 µM in [3]; 17.5 µM in test [4]. For the same compound, the results for the TGI in [9], in test [5] and in [6] were 24.1 µM, 6.76 µM and 65.7 µM, respectively.
For `Cn1c(=O)c2/c(n(C)c1=O)=N\C=c1\c(=O)n(C)c(=O)n(C)\c1=N\C=2`, the TGI in test [7], in [1], in test [2], in test [8], in test [4] and in test [9] was over 100 µM throughout. The TGI in test [5] and in test [6] was over 100 µM each time.
`O=C1CSc2cc([N+](=O)[O-])ccc2N1`: the TGI in test [1], in test [2], in test [8], in test [3], in test [4] and in test [9] was over 100 µM each time. The TGI in test [5] and in test [6] was over 100 µM in each case.
Consider `Cn1cccc1/C=C/c1cc(Br)c(/C=C/c2cccn2C)cc1Br`, for which the TGI turned out to be 48 µM in test [7]; 41.5 µM in test [1]; 20.2 µM in [2]; 39.1 µM in [8]; 39.5 µM in test [3]; 57.9 µM in [4]. The figures for the TGI in [9], in test [5] and in test [6] were over 100 µM, 16.5 µM and 92.8 µM, respectively.
For `O=C(CCC(=O)C1CCC/C1=N/O)Nc1ccc(Cl)cc1` (centres undefined), the TGI in test [7], in test [1], in test [2], in [8], in [3] and in [4] was over 100 µM in each case. For the same compound, the TGI in [9], in test [5] and in test [6] was over 100 µM in each case.
Turning to `Brc1cc2c(cc1Br)CN(c1ccccc1)C2`, the TGI in test [7], in test [1], in test [2], in test [8], in test [3] and in test [4] was over 100 µM each time. For the same compound, the TGI in test [9], in test [5] and in [6] was over 100 µM throughout.
Turning to `CN(C)C(=O)Oc1c(-c2ccccc2)c(=O)n2c3ccccc3n3c(=O)n(C)c(=O)c1c23`, the TGI in test [7], in test [1], in test [2], in test [8], in test [4] and in [9] was over 100 µM each time. Moreover, the TGI in test [5] and in [6] was over 100 µM in each case.
For `O=C1/C(=C/c2ccc(Br)cc2)CCC/C1=C\c1ccc(Br)cc1`, the TGI came to 24.7 µM in test [7]; 4.27 µM in test [1]; 36.2 µM in test [2]; 35.3 µM in [8]; 11.5 µM in test [4]; 16.2 µM in [9]. For the same compound, the TGI in test [5] was 69.3 µM; in test [6] it was 46 µM.
Take `CCCCCCCCCCC(C)CCCCCCC(=O)O` (centres undefined): the TGI in test [7], in [1], in test [2], in test [8], in test [3] and in test [4] was over 100 µM each time. Moreover, the TGI in [9], in test [5] and in [6] was over 100 µM in each case.
For `CC(=O)[CH-]C(=O)c1ccccc1.CC(=O)[CH-]C(=O)c1ccccc1.CC[O-].O=C1c2ccccc2C(=O)c2c1ccc(O)c2[O-].[Ti+4]`, the TGI in test [7] was 86.9 µM; in test [1], over 100 µM; in test [2], over 100 µM; in test [8], over 100 µM; in test [3], over 100 µM; in [4], over 100 µM. Further, the TGI in [9], in [5] and in [6] was over 100 µM throughout.
In the case of `O=S1Nc2c(Cl)cc(Cl)c(Cl)c2S1` (centres undefined), the TGI in test [7], in test [1], in test [2], in [8], in test [3] and in test [4] was over 100 µM throughout. The TGI in [9], in [5] and in test [6] was over 100 µM each time.
